Experimental data taken from patent US20080124741A1, “Canine Cholecystokinin 1 Receptor Materials And Their Use” (priority 2004, published 2008).
Read-outs that look alike come from different tables or passages of the source.

Experiments:
canine CCK2 receptor = molecular target: T1, canine CCK2 receptor (Canis lupus familiaris, UniProt P30552); test: competition binding of [125I]-BH-CCK-8S at canine CCK2 receptor; conditions: for fold higher affinity at the canine CCK2 receptor compared to the canine CCK1 receptor: canine CCK2 over canine CCK1
T1 sequence (P30552 1-453): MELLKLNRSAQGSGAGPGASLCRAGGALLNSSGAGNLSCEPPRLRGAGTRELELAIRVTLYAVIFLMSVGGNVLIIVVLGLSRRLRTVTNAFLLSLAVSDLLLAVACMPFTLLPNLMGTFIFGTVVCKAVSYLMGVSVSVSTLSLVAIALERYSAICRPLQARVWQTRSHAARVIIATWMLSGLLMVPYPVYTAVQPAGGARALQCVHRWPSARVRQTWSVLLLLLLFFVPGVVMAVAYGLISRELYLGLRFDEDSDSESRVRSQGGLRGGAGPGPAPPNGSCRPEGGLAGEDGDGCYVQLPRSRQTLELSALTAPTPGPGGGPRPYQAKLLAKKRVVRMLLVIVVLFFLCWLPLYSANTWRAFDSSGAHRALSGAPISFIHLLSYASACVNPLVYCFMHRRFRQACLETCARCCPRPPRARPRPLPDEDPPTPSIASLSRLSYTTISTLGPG

Canine CCK1: Wild-type = molecular target: T2, Canine CCK1: Wild-type (Canis lupus familiaris, UniProt Q5D0K2); test: competition binding at wild-type canine CCK1 receptor transiently transfected in HEK cells; conditions: n = 3, ± s.e. mean; for Ki: read-out: pKI (affinity value, -log equilibrium dissociation constant) (converted)
T2 construct: The ORF encodes a 428 amino-acid protein; expressed in transfected cells; host or cells: HEK-293 cells, transient
T2 sequence (Q5D0K2 1-428): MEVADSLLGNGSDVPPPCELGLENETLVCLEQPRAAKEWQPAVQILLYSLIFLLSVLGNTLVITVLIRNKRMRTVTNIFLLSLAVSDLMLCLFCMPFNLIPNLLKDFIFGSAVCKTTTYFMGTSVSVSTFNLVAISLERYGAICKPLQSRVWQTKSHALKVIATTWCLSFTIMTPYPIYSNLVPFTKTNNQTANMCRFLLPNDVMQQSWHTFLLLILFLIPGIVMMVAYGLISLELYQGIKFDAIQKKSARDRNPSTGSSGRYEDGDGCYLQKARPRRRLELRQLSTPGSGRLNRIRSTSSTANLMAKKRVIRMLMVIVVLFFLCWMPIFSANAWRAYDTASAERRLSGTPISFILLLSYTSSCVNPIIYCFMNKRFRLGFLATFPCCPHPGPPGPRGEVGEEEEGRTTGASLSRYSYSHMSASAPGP
Procedure: (§1) For radioligand binding studies, the cells were harvested by cell scraping and resulting pellets immediately frozen at −80° C. (approximately 50×10^6 cells/pellet). Frozen cell pellets were defrosted on ice in 15 ml of assay buffer (composition; 10 mM HEPES, 130 mM NaCl, 4.7 mM KCl, 5 mM MgCl2, bacitracin 0.089; pH 7.2 at 21±3° C.) and then homogenized (setting 10, 7×3 s; Polytron; Brinkmann Instruments). The homogenate was centrifuged (800×g for 10 min) and the pellet discarded. The supernatant was re-centrifuged (39,800×g for 25 min) and the final pellet re-suspended in 20 ml assay buffer (cell concentration: 25×10^5 cells ml^−1). Protein concentration was determined using BCA Protein Assay Kit (Pierce, Rockford, Ill.). All binding assays were conducted in 96 well Multiscreen GF/B filter plates (Millipore, Billerica, Mass., USA) that were pre-soaked in assay buffer for 1 h. […] The bound radioactivity was separated by filtration using a Multiscreen Resist manifold (Millipore, Billericay, Mass., USA). The filters were washed three times with ice-cold PBS (pH 7.5) and radioactivity retained on the filters was measured by liquid scintillation counting using a TopCount (Packard BioScience, Boston, Mass.). All experiments were performed in triplicate.
(§2) Equilibrium dissociation constant (K1) values were assumed to be equal to the IC50 values obtained from the logistic curve fit as the radiolabel concentrations used in the assays were always below the KD of the radiolabel. The equilibrium dissociation constants (K1) values were calculated from the midpoint locations (IC50) following Cheng & Prusoff, eqn.
(§3) In order to investigate these variants, plasmid DNAs containing the respective variant canine CCK1 receptor cDNAs and the wild type cDNA were transiently transfected into HEK-293 cells using Lipofectamine 200 transfection reagent and Opti-MEM medium (Invitrogen). Cells were harvested at 48-72 hours after transfection and the pellets were frozen at −80° C. The cells were then harvested, assayed, and the data analyzed as described above.

canine CCK1 receptor = molecular target: T3, canine CCK1 receptor (Canis lupus familiaris, UniProt Q5D0K2); test: competition binding of [125I]-BH-CCK-8S at cloned canine CCK1 receptor stably expressed in CHO-K cells; conditions: for nH (Hill slope) / Ki: Canine CCK1, CHO-K cells, [125I]-BH-CCK-8S radiolabel, n = 3, ± s.e. mean; for Ki: read-out: pKI (affinity value, -log equilibrium dissociation constant) (converted)
T3 construct: expressed in transfected cells
T3 sequence (Q5D0K2 1-428): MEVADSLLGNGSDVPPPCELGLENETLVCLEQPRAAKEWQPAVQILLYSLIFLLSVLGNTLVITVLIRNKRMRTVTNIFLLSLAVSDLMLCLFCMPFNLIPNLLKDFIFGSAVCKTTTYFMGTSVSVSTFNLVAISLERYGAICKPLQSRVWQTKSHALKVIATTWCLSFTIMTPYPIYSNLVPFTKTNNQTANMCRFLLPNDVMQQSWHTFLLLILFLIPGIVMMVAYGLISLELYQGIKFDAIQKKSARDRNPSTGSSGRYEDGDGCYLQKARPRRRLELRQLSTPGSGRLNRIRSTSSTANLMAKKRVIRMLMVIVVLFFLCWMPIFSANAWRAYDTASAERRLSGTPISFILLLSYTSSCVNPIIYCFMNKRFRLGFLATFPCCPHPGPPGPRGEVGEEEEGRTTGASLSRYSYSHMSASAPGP
Procedure: The plasmids described above were used for stable transfection into CHO-K cells (Chinese Hamster Ovary) (American Type Culture Collection, Rockville, Md.) using the Effectene transfection method (Qiagen, Chatsworth, Calif.) with 2 μg plasmid for each 100 mm^2 culture dish. These cells were maintained in Ham's F12 selection medium with 10% fetal bovine serum, 2 mM L-glutamine, penicillin (50 U ml^−1), streptomycin (50 mg ml^−1) and Geneticin (0.7 mg ml^−1) (Invitrogen) at 37° C. in a humidified incubator under an atmosphere containing 5% CO2. Media was changed every other day. Isolated Geneticin resistant colonies were picked from the 100 mm^2 dishes and grown to confluence in 6 well cluster dishes. 24 individual stable clones were used in a Fluorometric Imaging Plate Reader (FLIPR) assay with CCK-8S (0.01 nM-1 μM) to select a clone with a good signal-to-noise window for use in further experiments.
(§4) For radioligand binding studies, the cells were harvested by cell scraping and resulting pellets immediately frozen at −80° C. (approximately 50×10^6 cells/pellet). Frozen cell pellets were defrosted on ice in 15 ml of assay buffer (composition; 10 mM HEPES, 130 mM NaCl, 4.7 mM KCl, 5 mM MgCl2, bacitracin 0.089; pH 7.2 at 21±3° C.) and then homogenized (setting 10, 7×3 s; Polytron; Brinkmann Instruments). The homogenate was centrifuged (800×g for 10 min) and the pellet discarded. The supernatant was re-centrifuged (39,800×g for 25 min) and the final pellet re-suspended in 20 ml assay buffer (cell concentration: 25×10^5 cells ml^−1). Protein concentration was determined using BCA Protein Assay Kit (Pierce, Rockford, Ill.). All binding assays were conducted in 96 well Multiscreen GF/B filter plates (Millipore, Billerica, Mass., USA) that were pre-soaked in assay buffer for 1 h. […] Nonspecific binding was determined by inclusion of 10 μM 2-NAP (a CCK1 receptor selective antagonist; see, e.g., Hull et al., 1993, Br. J. Pharmacol., 108:734-740). All radioligand binding studies were conducted in the presence of the CCK2 receptor-selective antagonist PD-134,308 at a concentration estimated to occupy 99% of human CCK2 receptors (0.3 μM; se, e.g., Hughes et al., 1990, Proc. Natl. Acad. Sci. U.S.A., 87(17):6728-6732; Hunter et al., 1993, Mol. Pharmacol., 43:595-602). The bound radioactivity was separated by filtration using a Multiscreen Resist manifold (Millipore, Billericay, Mass., USA). The filters were washed three times with ice-cold PBS (pH 7.5) and radioactivity retained on the filters was measured by liquid scintillation counting using a TopCount (Packard BioScience, Boston, Mass.). All experiments were performed in triplicate.
as §2
(§5) Competition-inhibition studies were conducted on the canine and human CCK1 receptor using a cell-protein concentration within the linear range of the cell number curve (80 μg/ml, cell number curves not shown).

human CCK1 receptor = molecular target: T4, human CCK1 receptor (Homo sapiens, UniProt P32238); test: competition binding of [125I]-BH-CCK-8S at cloned human CCK1 receptor; conditions: Human CCK1, [125I]-BH-CCK-8S radiolabel, n = 3, ± s.e. mean; for Ki: read-out: pKI (affinity value, -log equilibrium dissociation constant) (converted)
T4 construct: expressed in transfected cells
T4 sequence (P32238 1-428): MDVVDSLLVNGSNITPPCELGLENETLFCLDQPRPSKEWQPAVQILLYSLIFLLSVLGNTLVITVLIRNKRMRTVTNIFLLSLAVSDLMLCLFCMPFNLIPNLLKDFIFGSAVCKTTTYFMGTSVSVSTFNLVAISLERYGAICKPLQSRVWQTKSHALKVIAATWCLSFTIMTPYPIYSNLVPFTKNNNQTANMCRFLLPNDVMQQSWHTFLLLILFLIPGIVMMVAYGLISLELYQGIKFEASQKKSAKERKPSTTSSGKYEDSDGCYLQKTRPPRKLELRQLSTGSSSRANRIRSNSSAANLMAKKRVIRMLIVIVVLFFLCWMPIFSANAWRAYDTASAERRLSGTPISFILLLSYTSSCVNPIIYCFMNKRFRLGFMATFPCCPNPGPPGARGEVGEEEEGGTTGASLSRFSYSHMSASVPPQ
Procedure: as §4, §2, §5

Canine CCK1: Variant #1 = molecular target: T5, Canine CCK1: Variant #1 (Canis lupus familiaris, UniProt Q5D0K2, G258S/L413V/V400A); test: competition binding at variant #1 canine CCK1 receptor transiently transfected in HEK cells; conditions: Canine CCK1 variant #1, transiently transfected in HEK cells, n = 3, ± s.e. mean; for Ki: read-out: pKI (affinity value, -log equilibrium dissociation constant) (converted)
T5 construct: plasmid DNAs containing the respective variant canine CCK1 receptor cDNAs and the wild type cDNA were transiently transfected; expressed in transfected cells; host or cells: HEK-293 cells, transient
T5 sequence (Q5D0K2 1-428 G258S/V400A/L413V): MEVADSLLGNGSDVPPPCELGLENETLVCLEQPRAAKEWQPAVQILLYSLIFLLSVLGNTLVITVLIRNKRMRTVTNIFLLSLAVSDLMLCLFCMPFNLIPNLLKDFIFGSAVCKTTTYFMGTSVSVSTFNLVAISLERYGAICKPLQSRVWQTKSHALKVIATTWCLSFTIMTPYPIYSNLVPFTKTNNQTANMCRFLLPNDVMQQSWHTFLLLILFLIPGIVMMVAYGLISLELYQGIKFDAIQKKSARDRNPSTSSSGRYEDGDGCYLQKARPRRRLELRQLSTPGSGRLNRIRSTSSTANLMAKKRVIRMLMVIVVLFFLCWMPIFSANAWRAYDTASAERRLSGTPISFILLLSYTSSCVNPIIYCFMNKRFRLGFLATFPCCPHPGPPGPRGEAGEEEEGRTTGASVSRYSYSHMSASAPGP
Procedure: as §1, §2, §3

[1] = molecular target: T6, guinea-pig pancreatic CCK1 receptors (Cavia porcellus, UniProt Q63931); conditions: guinea-pig pancreatic CCK1 receptors (Takinami et al., 1997); cited from earlier work
T6 construct: host or cells: guinea-pig pancreas
T6 sequence (Q63931 1-430): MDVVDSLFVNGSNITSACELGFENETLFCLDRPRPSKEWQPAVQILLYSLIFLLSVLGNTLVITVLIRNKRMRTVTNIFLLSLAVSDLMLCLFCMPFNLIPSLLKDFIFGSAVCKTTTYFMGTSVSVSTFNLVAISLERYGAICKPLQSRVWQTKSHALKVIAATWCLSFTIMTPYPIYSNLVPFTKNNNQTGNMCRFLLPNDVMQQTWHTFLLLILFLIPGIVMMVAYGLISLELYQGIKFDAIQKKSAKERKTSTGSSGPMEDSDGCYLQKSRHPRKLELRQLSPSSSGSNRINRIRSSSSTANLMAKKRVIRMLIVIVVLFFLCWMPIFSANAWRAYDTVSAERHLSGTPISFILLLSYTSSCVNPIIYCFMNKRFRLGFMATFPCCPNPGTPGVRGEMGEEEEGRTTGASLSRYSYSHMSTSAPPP

[2] = test system: putative CCK1 receptor binding sites labeled with [3H]-L-364,718; conditions: canine intestine (Mao et al., 1995); cited from earlier work
[3] = Canine CCK2, [125I]-BH-CCK-8S radiolabel, n = 3, ± s.e. mean
[4] = Canine CCK2, [125I]-BH-CCK-8S radiolabel, n = 3, ± s.e. mean, read-out: pKI (affinity value, -log equilibrium dissociation constant) (converted)

SMILES | nH (Hill slope) (canine CCK2 receptor; [3]) | Ki (canine CCK2 receptor; [4]) [nM] | nH (Hill slope) (Canine CCK1: Wild-type) | Ki (Canine CCK1: Wild-type) [nM] | nH (Hill slope) (canine CCK1 receptor) | Ki (canine CCK1 receptor) [nM] | fold higher affinity at the canine CCK1 receptor (compared to canine CCK2) (canine CCK1 receptor; canine CCK1 over canine CCK2) [fold] | nH (Hill slope) (human CCK1 receptor) | Ki (human CCK1 receptor) [nM] | nH (Hill slope) (Canine CCK1: Variant #1) | Ki (Canine CCK1: Variant #1) [nM] | fold higher affinity at the canine CCK2 receptor compared to the canine CCK1 receptor (canine CCK2 receptor) [fold] | reported pK1 value [1] | Ki (canine CCK2 receptor) [nM] | inhibitory effect at [3H]-L-364,718 binding sites [2]
CCCCCN(CCCOC)C(=O)[C@@H](CCC(=O)O)NC(=O)c1ccc(Cl)c(Cl)c1 [dexloxiglumide, (R)-4-(3,4-Dichloro-benzoylamino)-4-[(3-methoxy-propyl)-pentyl-carbamoyl]-butyric acid] | 0.71 ± 0.09 | 2750 | 1.33 ± 0.43 | 16.6 | 0.83 ± 0.13 | 29.5 | 93 | 0.91 ± 0.18 | 29.5 | 0.90 ± 0.17 | 16.6 |  |  |  | 
CNc1cccc(NC(=O)N[C@@H]2N=C(c3ccccn3)c3ccccc3N(CC(=O)C(C)(C)C)C2=O)c1 [YF476] | 0.91 ± 0.10 | 1.05 | 0.60 ± 0.22 | 12 | 0.88 ± 0.08 | 12.3 |  | 0.95 ± 0.07 | 13.5 | 1.14 ± 0.37 | 15.1 | ~12 | ~6.5 |  | 
Cc1cccc(NC(=O)N[C@@H]2N=C(c3ccccc3)c3ccccc3N(CC(=O)c3ccccc3C)C2=O)c1 [YM022, 1-[(R)-2,3-dihydro-1-(2-methylphenacyl)-2-oxo-5-phenyl-1H-1,4-benzodiazepin-3-yl]-3-(3-methylphenyl)urea] | 0.92 ± 0.10 |  | 1.17 ± 0.30 | 11 | 1.09 ± 0.13 | 5.25 |  | 1.15 ± 0.14 | 7.76 | 1.39 ± 0.39 | 8.32 | 27 |  | 0.195 | no inhibitory effect
